Measured values: PubChem BioAssay AID286 (DTP/NCI, 2004)
Toxic doses and inconclusive results are not listed.

Tested on: BDF1 mice, M5076 sarcoma ip, median survival T/C
Assay: NCI In Vivo Anticancer Drug Screen. Data for tumor model Sarcoma M5076 (intraperitoneal) in B6D2F1 (BDF1) mice
Conditions: endpoint: median survival time, higher = longer survival
Description: The antitumor activity of compounds was measured in mice bearing transplantable tumors. Survival or tumor size were measured and the results are expressed as the measurement made in the treated group (T) divided by the measurement made in the vehicle treated control group (C). The tumor model used in this assay is Sarcoma M5076 (intraperitoneal) in B6D2F1 (BDF1) mice

[1] = dose: 1.56 mg/kg/injection, schedule: Q01DX009 (ip), vehicle: Klucel (hydroxypropylcellulose) (HPC)

In the case of `Nc1ccn(C2OC(CO)C(O)C2O)c(=O)n1` (centres undefined), the T/C (dose: 125.0 mg/kg/injection, schedule: Q04DX005 (ip), vehicle: saline) is reported as 164 % of control, the T/C (dose: 250.0 mg/kg/injection, schedule: Q04DX005 (ip), vehicle: saline) is reported as 184 % of control and the T/C (dose: 500.0 mg/kg/injection, schedule: Q04DX005 (ip), vehicle: saline) is reported as 185 % of control. The T/C (dose: 1000.0 mg/kg/injection, schedule: Q04DX005 (ip), vehicle: saline) was 199 % of control.

In the case of `CCC/C=C/C=C/C(=O)OC1/C(=C/C(=O)OC)CC2CC(C(C)O)OC(=O)CC(O)CC3CC(OC(C)=O)C(C)(C)C(O)(CC4C/C(=C/C(=O)OC)CC(/C=C/C(C)(C)C1(O)O2)O4)O3` (centres undefined), the T/C (dose: 20.0 micrograms/kg/injection, schedule: Q01DX009 (ip), vehicle: saline + Tween-80 + alcohol) is reported as 158 % of control, the T/C (dose: 40.0 micrograms/kg/injection, schedule: Q01DX009 (ip), vehicle: saline + Tween-80 + alcohol) is reported as 168 % of control and the T/C (dose: 80.0 micrograms/kg/injection, schedule: Q01DX009 (ip), vehicle: saline + Tween-80 + alcohol) is reported as 160 % of control.

`O=c1n(CC2CO2)c(=O)n(CC2CO2)c(=O)n1CC1CO1` (centres undefined) was tested, and the T/C (dose: 13.0 mg/kg/injection, schedule: Q04DX005 (ip), vehicle: saline) was 191 % of control, the T/C (dose: 21.6 mg/kg/injection, schedule: Q04DX005 (ip), vehicle: saline) was 270 % of control and the T/C (dose: 36.0 mg/kg/injection, schedule: Q04DX005 (ip), vehicle: saline) was 377 % of control. For the same compound, the T/C (dose: 60.0 mg/kg/injection, schedule: Q04DX005 (ip), vehicle: saline) was 377 % of control.

With `Cc1c2ccccc2c(C)c2c1cc(C(=O)O)c1ccccc12` the T/C (dose: 25.0 mg/kg/injection, schedule: Q04DX004 (ip), vehicle: sodium bicarbonate) was 109 % of control, the T/C (dose: 100.0 mg/kg/injection, schedule: Q04DX004 (ip), vehicle: sodium bicarbonate) was 110 % of control and the T/C (dose: 200.0 mg/kg/injection, schedule: Q04DX004 (ip), vehicle: sodium bicarbonate) was 116 % of control. The T/C (dose: 400.0 mg/kg/injection, schedule: Q04DX004 (ip), vehicle: sodium bicarbonate) was 110 % of control.

`Cc1nc(C(Cl)(Cl)Cl)[nH]c(=O)c1SCCO` was tested, and the T/C (dose: 50.0 mg/kg/injection, schedule: Q04DX004 (ip), vehicle: distilled water + alcohol) was 101 % of control, the T/C (dose: 100.0 mg/kg/injection, schedule: Q04DX004 (ip), vehicle: distilled water + alcohol) was 93 % of control and the T/C (dose: 200.0 mg/kg/injection, schedule: Q04DX004 (ip), vehicle: distilled water + alcohol) was 94 % of control. For the same compound, the T/C (dose: 400.0 mg/kg/injection, schedule: Q04DX004 (ip), vehicle: distilled water + alcohol) was 96 % of control.

`COC1CC2C=C(C)/C=C/C=C/C(=O)NC(c3ccccc3)C/C=C/CCC(O)CC(=O)C2=C1O` (centres undefined) was tested, and the T/C [1] was 115 % of control.

`Nc1n[nH]c2ccccc12` was tested, and the T/C (dose: 50.0 mg/kg/injection, schedule: Q04DX004 (ip), vehicle: acid diluted with saline) was 112 % of control, the T/C (dose: 100.0 mg/kg/injection, schedule: Q04DX004 (ip), vehicle: acid diluted with saline) was 113 % of control and the T/C (dose: 200.0 mg/kg/injection, schedule: Q04DX004 (ip), vehicle: acid diluted with saline) was 112 % of control.

For `CS(C)(O)NC(N)=O`, the T/C (dose: 50.0 mg/kg/injection, schedule: Q04DX004 (ip), vehicle: water) was 104 % of control, the T/C (dose: 100.0 mg/kg/injection, schedule: Q04DX004 (ip), vehicle: water) was 102 % of control and the T/C (dose: 200.0 mg/kg/injection, schedule: Q04DX004 (ip), vehicle: water) was 104 % of control. For the same compound, the T/C (dose: 400.0 mg/kg/injection, schedule: Q04DX004 (ip), vehicle: water) was 100 % of control and the T/C (dose: 800.0 mg/kg/injection, schedule: Q04DX004 (ip), vehicle: water) was 107 % of control.

With `CC[N+](CC)(CC)CC` the T/C (dose: 10.8 mg/kg/injection, schedule: Q04DX005 (ip), vehicle: saline with Tween-80) was 172 % of control.

For `COC1N(C2CC(O)C(CO)O2)C(=O)NC(=O)C1(F)Br` (centres undefined), the T/C (dose: 25.0 mg/kg/injection, schedule: Q04DX004 (ip), vehicle: saline) was 110 % of control, the T/C (dose: 50.0 mg/kg/injection, schedule: Q04DX004 (ip), vehicle: saline) was 115 % of control and the T/C (dose: 100.0 mg/kg/injection, schedule: Q04DX004 (ip), vehicle: saline) was 116 % of control. For the same compound, the T/C (dose: 400.0 mg/kg/injection, schedule: Q04DX004 (ip), vehicle: saline) was 124 % of control.

With `CCC(O)CC1OC2(CCC1C)CC1OC(=O)/C=C\C(C)(O)C(O)C(C)C(O)C(OC3CC(OC)C(O)C(C)O3)C(O)C(C)(O)CCC/C=C/C3CC(C)COC3(O)CC(O2)C1C` (centres undefined) the T/C (dose: 0.25 mg/kg/injection, schedule: Q01DX009 (ip), vehicle: saline + alcohol) was 105 % of control, the T/C (dose: 0.5 mg/kg/injection, schedule: Q01DX009 (ip), vehicle: saline + alcohol) was 113 % of control and the T/C (dose: 1.0 mg/kg/injection, schedule: Q01DX009 (ip), vehicle: saline + alcohol) was 104 % of control. The T/C (dose: 2.0 mg/kg/injection, schedule: Q01DX009 (ip), vehicle: saline + alcohol) was 111 % of control.

For `CC(=O)N(C)c1ccc(Nc2cc(C)[nH]c3ccc4ncnc4c23)cc1`, the T/C (dose: 5.0 mg/kg/injection, schedule: Q04DX004 (ip), vehicle: saline) was 96 % of control.

For `CC(/C=N/N=C(N)N)=N\N=C(N)N`, the T/C (dose: 32.4 mg/kg/injection, schedule: Q04DX005 (ip), vehicle: saline) was 110 % of control, the T/C (dose: 54.0 mg/kg/injection, schedule: Q04DX005 (ip), vehicle: saline) was 96 % of control and the T/C (dose: 90.0 mg/kg/injection, schedule: Q04DX005 (ip), vehicle: saline) was 110 % of control.

With `COC(=O)Nc1ccc(Cc2ccc(NC(=O)OC)cc2)cc1` the T/C (dose: 50.0 mg/kg/injection, schedule: Q04DX004 (ip), vehicle: saline with Tween-80) was 89 % of control, the T/C (dose: 100.0 mg/kg/injection, schedule: Q04DX004 (ip), vehicle: saline with Tween-80) was 103 % of control and the T/C (dose: 200.0 mg/kg/injection, schedule: Q04DX004 (ip), vehicle: saline with Tween-80) was 118 % of control. The T/C (dose: 400.0 mg/kg/injection, schedule: Q04DX004 (ip), vehicle: saline with Tween-80) was 185 % of control.

`CN=C(N)c1ccc(N=C(N)c2ccc(C(N)=Nc3ccc(C(N)=NC)cc3)cc2)cc1` was tested, and the T/C (dose: 1.3 mg/kg/injection, schedule: Q01DX005 (iv), vehicle: saline) was 98 % of control, the T/C (dose: 1.3 mg/kg/injection, schedule: Q01DX005 (iv), vehicle: water) was 100 % of control and the T/C (dose: 3.6 mg/kg/injection, schedule: Q01DX005 (iv), vehicle: saline) was 104 % of control. The T/C (dose: 3.6 mg/kg/injection, schedule: Q01DX005 (iv), vehicle: water) was 100 % of control, the T/C (dose: 3.75 mg/kg/injection, schedule: Q01DX005 (iv), vehicle: water) was 99 % of control and the T/C (dose: 3.75 mg/kg/injection, schedule: Q01DX005 (sc), vehicle: water) was 101 % of control. For the same compound, the T/C (dose: 6.0 mg/kg/injection, schedule: Q01DX005 (iv), vehicle: saline) was 104 % of control, the T/C (dose: 6.0 mg/kg/injection, schedule: Q01DX005 (iv), vehicle: water) was 99 % of control and the T/C (dose: 7.5 mg/kg/injection, schedule: Q01DX005 (iv), vehicle: water) was 108 % of control. The T/C (dose: 15.0 mg/kg/injection, schedule: Q01DX005 (ip), vehicle: water) was 165 % of control, the T/C (dose: 15.0 mg/kg/injection, schedule: Q01DX005 (sc), vehicle: water) was 120 % of control and the T/C (dose: 18.0 mg/kg/injection, schedule: Q01DX005 (ip), vehicle: saline) was 164 % of control. The T/C (dose: 18.0 mg/kg/injection, schedule: Q01DX005 (ip), vehicle: water) was 164 % of control, the T/C (dose: 30.0 mg/kg/injection, schedule: Q01DX005 (ip), vehicle: saline) was 180 % of control and the T/C (dose: 30.0 mg/kg/injection, schedule: Q01DX005 (ip), vehicle: water) was 172 % of control.

For `CCC(C)C(N)C(=O)NC(CC(N)=O)C(=O)NC(CC(C)C)C(=O)NC(CCCCN)C(=O)NC(C)C(=O)NC(CC(C)C)C(=O)NC(C)C(=O)NC(C)C(=O)NC(CC(C)C)C(=O)NC(C)C(=O)NC(CCCCN)C(=O)NC(CCCCN)C(=O)NC(C(=O)NC(CC(C)C)C(N)=O)C(C)CC` (centres undefined), the T/C [1] was 95 % of control, the T/C (dose: 3.12 mg/kg/injection, schedule: Q01DX009 (ip), vehicle: Klucel (hydroxypropylcellulose) (HPC)) was 101 % of control and the T/C (dose: 6.25 mg/kg/injection, schedule: Q01DX009 (ip), vehicle: Klucel (hydroxypropylcellulose) (HPC)) was 96 % of control. The T/C (dose: 12.5 mg/kg/injection, schedule: Q01DX009 (ip), vehicle: Klucel (hydroxypropylcellulose) (HPC)) was 98 % of control.

For `C=CCOc1cc2c(cc1C(C)c1ccc(OC)cc1)OCO2` (centres undefined), the T/C (dose: 25.0 mg/kg/injection, schedule: Q04DX004 (ip), vehicle: Klucel (hydroxypropylcellulose) (HPC)) was 104 % of control, the T/C (dose: 50.0 mg/kg/injection, schedule: Q04DX004 (ip), vehicle: Klucel (hydroxypropylcellulose) (HPC)) was 118 % of control and the T/C (dose: 100.0 mg/kg/injection, schedule: Q04DX004 (ip), vehicle: Klucel (hydroxypropylcellulose) (HPC)) was 102 % of control. For the same compound, the T/C (dose: 200.0 mg/kg/injection, schedule: Q04DX004 (ip), vehicle: Klucel (hydroxypropylcellulose) (HPC)) was 118 % of control and the T/C (dose: 400.0 mg/kg/injection, schedule: Q04DX004 (ip), vehicle: Klucel (hydroxypropylcellulose) (HPC)) was 214 % of control.
